Assay results taken from patent publication US20100069493A1, “AQUEOUS PHARMACEUTICAL FORMULATION OF 4-[((4-CARBOXYBUTYL)-AMINO)METHYL]BENZOIC ACID” (BAYER HEALTHCARE AG, priority 2006, published 2010).
≈ marks a conversion by molar mass, not a printed value.

Assays:
Type in all cases: physicochemical
[1] = pKa of the ionizable groups of compound 1
Description: (§1) However, there are limits to increasing the pH due to the use as infusion. Values of pH above pH 9.0 are borderline in relation to physiological tolerability.

[2] = Saturation solubility of compound 1 in various buffer media; conditions: aqueous buffer, thermodynamic from solid
Description: as §1

[3] = Dilution experiments on 0.05 mg/ml solutions with and without trometamol (Table 2); conditions: for Appearance of the solution: 0.05 mg/ml solution with trometamol 0.01 molar, pH before dilution 8.74
Experimental: Dilution experiments on solutions with an active ingredient content of 0.05 mg/ml have shown that these can be diluted in a pH-stable and thus problem-free manner over a wide range only if they are buffered with a sufficient quantity of trometamol.
Without use of trometamol and on use of trometamol in a concentration of only 0.001 M, the pH falls greatly even with slight dilution (1+5). There is a high risk in this case that the active ingredient will precipitate on dilution with other infusion solutions (Table 2 a-c).

[4] = Titration experiments with 0.01 N hydrochloric acid (acid burden, precipitation)
Experimental: It was possible to show in titration experiments that an acid burden of 0.01 N hydrochloric acid in solutions without trometamol leads to such a large fall in pH even on addition of less than 1 ml to the total content of a 50 ml infusion bottle that the active ingredient precipitates. On addition of 0.001 M trometamol buffer, precipitations are to be observed on addition of about 5 ml of 0.01 N hydrochloric acid. A solution with a trometamol content of 0.01 M is by contrast stable to precipitations on addition of acid up to more than 35 ml of 0.01 N hydrochloric acid.

[5] = Dilution of 0.05 mg/ml compound 1 / 0.01 M trometamol solutions with standard infusion solutions (Table 3); conditions: trometamol 0.01 M
Experimental: Solutions comprising compound 1 in a concentration of 0.05 mg/ml and trometamol in a concentration of 0.01 M can be diluted problem-free with standard infusion solutions over a wide range. The dilution experiments shown in Table 3 were carried out concerning this:
All the dilution experiments were carried out in duplicate. […] It emerged that there is a marked decrease in the pH values to the region below 8.0 only with dilutions greater than 1:40. Precipitation of the active ingredient is no longer a worry with such great dilutions, because the solubility limit of compound 1 is no longer reached owing to the large amount of dilution medium.

Q: For `O=C(O)CCCCN(CCc1ccccc1OCc1ccc(CCc2ccccc2)cc1)Cc1ccc(C(=O)O)cc1` [compound 1, 4-[((4-Carboxybutyl)-{2-[(4-phenethylbenzyl)oxy]phenethyl}amino)methyl]benzoic acid], which pKa1 [1] is on record?
A: 4.0

Q: And the pKa2 [1]?
A: 4.7

Q: What about the pKa3 [1] of the same compound?
A: 8.3

Q: And the solubility ([2]; Ammonium chloride buffer solution, actual pH 9.5)?
A: 75700 µg/mL (≈ 134000 µM)

Q: What about the solubility ([2]; Citric acid-phosphate buffer, actual pH 7.4) of the same compound?
A: 13.1 µg/mL (≈ 23.2 µM)

Q: And the solubility ([2]; Citric acid-phosphate buffer, actual pH 8.0)?
A: 64.2 µg/mL (≈ 113 µM)

Q: And the solubility ([2]; Diethanolamine buffer solution, actual pH 10.0)?
A: 89800 µg/mL (≈ 159000 µM)

Q: And the solubility ([2]; HEPES buffer solution, actual pH 7.5)?
A: 35.8 µg/mL (≈ 63.3 µM)

Q: What about the solubility ([2]; Phosphate buffer solution (0.2 M), actual pH 7.5) of the same compound?
A: 15.8 µg/mL (≈ 27.9 µM)

Q: What about the solubility ([2]; Phosphate buffer solution (0.3 M), actual pH 7.5) of the same compound?
A: 1.3 µg/mL (≈ 2.3 µM)

Q: What about the solubility ([2]; Phosphate buffer solution, actual pH 6.0) of the same compound?
A: 0.2 µg/mL (≈ 0.354 µM)

Q: And the solubility ([2]; Phosphate buffer solution, actual pH 7.2)?
A: 8.4 µg/mL (≈ 14.8 µM)

Q: What about the solubility ([2]; Phosphate buffer solution, actual pH 7.4) of the same compound?
A: 21.5 µg/mL (≈ 38 µM)

Q: What about the solubility ([2]; Phosphate buffer solution, actual pH 8.0) of the same compound?
A: 3.2 µg/mL (≈ 5.66 µM)

Q: And the solubility ([2]; Phosphate buffer solution, actual pH 9.0)?
A: 683 µg/mL (≈ 1210 µM)

Q: And the solubility ([2]; Saline-phosphate buffer, actual pH 7.4)?
A: 19 µg/mL (≈ 33.6 µM)

Q: What about the solubility ([2]; Sodium citrate buffer solution, actual pH 7.8) of the same compound?
A: 160 µg/mL (≈ 283 µM)

Q: What about the solubility ([2]; Tetrabutylammonium buffer solution, actual pH 7.0) of the same compound?
A: 12.8 µg/mL (≈ 22.6 µM)

Q: What about the pH after dilution ([3]; 0.05 mg/ml solution with trometamol 0.001 molar, mixing ratio 1 + 5, NaCl soln, final volume 251 ml, pH before dilution 8.69) of the same compound?
A: 8.43

Q: And the pH after dilution ([3]; 0.05 mg/ml solution with trometamol 0.001 molar, mixing ratio 1 + 10, NaCl soln, final volume 275 ml, pH before dilution 8.69)?
A: 8.05

Q: And the pH after dilution ([3]; 0.05 mg/ml solution with trometamol 0.001 molar, mixing ratio 1 + 250, NaCl soln, final volume 300 ml, pH before dilution 8.69)?
A: 6.61

Q: What about the “Appearance of the solution” value ([3]; mixing ratio 1 + 5, NaCl soln, final volume 251 ml) of the same compound?
A: clear

Q: What about the “Appearance of the solution” value ([3]; mixing ratio 1 + 10, NaCl soln, final volume 275 ml) of the same compound?
A: clear

Q: And the “Appearance of the solution” value ([3]; mixing ratio 1 + 250, NaCl soln, final volume 300 ml)?
A: clear

Q: And the pH after dilution ([3]; 0.05 mg/ml solution without trometamol, mixing ratio 1 + 5, NaCl soln, final volume 251 ml, pH before dilution 8.51)?
A: 6.40

Q: What about the pH after dilution ([3]; 0.05 mg/ml solution without trometamol, mixing ratio 1 + 10, NaCl soln, final volume 275 ml, pH before dilution 8.51) of the same compound?
A: 6.58

Q: What about the pH after dilution ([3]; 0.05 mg/ml solution without trometamol, mixing ratio 1 + 250, NaCl soln, final volume 300 ml, pH before dilution 8.51) of the same compound?
A: 6.70

Q: And the “Volume of 0.01 N hydrochloric acid at which precipitations are observed” value ([4]; solution with 0.001 M trometamol buffer, 50 ml infusion bottle)?
A: about 5 ml

Q: And the “Volume of 0.01 N hydrochloric acid up to which the solution is stable to precipitations” value ([4]; solution with trometamol content of 0.01 M, 50 ml infusion bottle)?
A: more than 35 ml

Q: And the “Volume of 0.01 N hydrochloric acid at which the active ingredient precipitates” value ([4]; solution without trometamol, added to total content of a 50 ml infusion bottle)?
A: less than 1 ml

Q: What about the Precipitation on dilution ([5]; all dilutions of Table 3, in duplicate) of the same compound?
A: No precipitations occurred

Q: What about the pH after dilution ([5]; mixing ratio 1:2, NaCl soln, final volume 10 ml) of the same compound?
A: 8.67

Q: What about the pH after dilution ([5]; mixing ratio 1:4, NaCl soln, final volume 20 ml) of the same compound?
A: 8.65

Q: And the pH after dilution ([5]; mixing ratio 1:10, Glucose soln, final volume 50 ml)?
A: 8.37

Q: And the pH after dilution ([5]; mixing ratio 1:10, NaCl soln, final volume 50 ml)?
A: 8.57

Q: What about the pH after dilution ([5]; mixing ratio 1:10, Placebo soln, final volume 50 ml) of the same compound?
A: 8.72

Q: And the pH after dilution ([5]; mixing ratio 1:10, Water, final volume 50 ml)?
A: 8.61

Q: What about the pH after dilution ([5]; mixing ratio 1:20, NaCl soln, final volume 100 ml) of the same compound?
A: 8.54

Q: And the pH after dilution ([5]; mixing ratio 1:40, NaCl soln, final volume 200 ml)?
A: 8.40

Q: What about the pH after dilution ([5]; mixing ratio 1:200, NaCl soln, final volume 1000 ml) of the same compound?
A: 7.85
